# In patent US10028966B2 (Avalyn Pharma Inc., priority 2014, dated 2018):
# Assay: Co-solvent and surfactant effects on pirfenidone saturation solubility;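 also: samples equilibrated by overnight agitation at ambient temperature, with solubility taken from the supernatant after undissolved solid was removed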
# Format: physicochemical
# Conditions: thermodynamic from solid
# Procedure: Each sample was agitated at ambient temperature overnight. The samples were visually inspected and appearance recorded. Samples were centrifuged to sediment any un-dissolved material and the supernatant withdrawn via syringe through a 0.22 μm PVDF filter. […] The remaining filtered sample was split into three equal volumes in glass vials and placed at 25° C./60 RH, 40° C./75 RH and refrigeration. Samples are wrapped in aluminum foil to reduce light exposure. After the first night of incubation, samples are briefly visually inspected for any signs of discoloration or precipitate formation.
compound,measurement,setting,value
"Cc1ccc(=O)n(-c2ccccc2)c1 [pirfenidone, 5-methyl-1-phenyl-2-(1H)-pyridone]",solubility,"aqueous co-solvent/surfactant solvent system, pH 4.9, aqueous with cosolvent or surfactant or cyclodextrin, 4% EtOH, 0.1% CPB, 95.9% water, pH 4.9",20.2 mg/mL
same,solubility,"aqueous co-solvent/surfactant solvent system, pH 4.9, aqueous with cosolvent or surfactant or cyclodextrin, 4% Gly, 0.04% PS80, 96.0% water, pH 4.9",20 mg/mL
same,solubility,"aqueous co-solvent/surfactant solvent system, pH 5, aqueous with cosolvent or surfactant or cyclodextrin, 8% PG, 0.1% CPB, 91.9% water, pH 5.0",22.3 mg/mL
same,solubility,"aqueous co-solvent/surfactant solvent system, pH 5.8, aqueous with cosolvent or surfactant or cyclodextrin, 4% EtOH, 8% PG, 0.04% PS80, 88.0% water, pH 5.8",28.9 mg/mL
same,solubility,"aqueous co-solvent/surfactant solvent system, pH 6.1, aqueous with cosolvent or surfactant or cyclodextrin, 4% EtOH, 0.1% CPB, 95.9% water, pH 6.1",23.9 mg/mL
same,solubility,"aqueous co-solvent/surfactant solvent system, pH 6.2, aqueous with cosolvent or surfactant or cyclodextrin, 0.1% CPB, 99.9% water, pH 6.2",20 mg/mL
same,solubility,"aqueous co-solvent/surfactant solvent system, pH 6.2, aqueous with cosolvent or surfactant or cyclodextrin, 4% EtOH, 8% PG, 88.0% water, pH 6.2",30 mg/mL
same,solubility,"aqueous co-solvent/surfactant solvent system, pH 6.2, aqueous with cosolvent or surfactant or cyclodextrin, 8% PG, 0.1% CPB, 91.9% water, pH 6.2",23.4 mg/mL
same,solubility,"aqueous co-solvent/surfactant solvent system, pH 6.5, aqueous with cosolvent or surfactant or cyclodextrin, 0.04% PS80, 100.0% water, pH 6.5",19.9 mg/mL
same,solubility,"aqueous co-solvent/surfactant solvent system, pH 6.5, aqueous with cosolvent or surfactant or cyclodextrin, 4% Gly, 0.04% PS80, 96.0% water, pH 6.5",20.2 mg/mL
same,solubility,"aqueous co-solvent/surfactant solvent system, pH 6.6, aqueous with cosolvent or surfactant or cyclodextrin, 4% EtOH, 8% PG, 0.04% PS80, 88.0% phosphate buffer (5 mM), pH 6.6",29.4 mg/mL
same,solubility,"aqueous co-solvent/surfactant solvent system, pH 6.6, aqueous with cosolvent or surfactant or cyclodextrin, 4% EtOH, 8% PG, 88.0% phosphate buffer (5 mM), pH 6.6",27.2 mg/mL
same,solubility,"aqueous co-solvent/surfactant solvent system, pH 6.6, aqueous with cosolvent or surfactant or cyclodextrin, 8% EtOH, 0% PG, 92% phosphate buffer (5 mM), pH 6.6",26.7 mg/mL
same,solubility,"aqueous co-solvent/surfactant solvent system, pH 6.6, aqueous with cosolvent or surfactant or cyclodextrin, 8% PG, 0.04% PS80, 92.0% water, pH 6.6",23.2 mg/mL
same,solubility,"aqueous co-solvent/surfactant solvent system, pH 6.7, aqueous with cosolvent or surfactant or cyclodextrin, 4% EtOH, 0.04% PS80, 96.0% water, pH 6.7",24.5 mg/mL
same,solubility,"aqueous co-solvent/surfactant solvent system, pH 6.7, aqueous with cosolvent or surfactant or cyclodextrin, 8% EtOH, 12% PG, 80% phosphate buffer (5 mM), pH 6.7",37.7 mg/mL
same,solubility,"aqueous co-solvent/surfactant solvent system, pH 6.8, aqueous with cosolvent or surfactant or cyclodextrin, 0% EtOH, 16% PG, 84% phosphate buffer (5 mM), pH 6.8",29.3 mg/mL
same,solubility,"aqueous co-solvent/surfactant solvent system, pH 6.8, aqueous with cosolvent or surfactant or cyclodextrin, 2% EtOH, 16% PG, 82% phosphate buffer (5 mM), pH 6.8",31 mg/mL
same,solubility,"aqueous co-solvent/surfactant solvent system, pH 6.8, aqueous with cosolvent or surfactant or cyclodextrin, 8% EtOH, 4% PG, 88% phosphate buffer (5 mM), pH 6.8",30.4 mg/mL
same,solubility,"aqueous co-solvent/surfactant solvent system, pH 6.8, aqueous with cosolvent or surfactant or cyclodextrin, 8% EtOH, 8% PG, 84% phosphate buffer (5 mM), pH 6.8",35 mg/mL
same,solubility,"aqueous co-solvent/surfactant solvent system, pH 6.8, aqueous with cosolvent or surfactant or cyclodextrin, 8% EtOH, 16% PG, 76% phosphate buffer (5 mM), pH 6.8",45.4 mg/mL
same,solubility,"aqueous co-solvent/surfactant solvent system, pH 6.9, aqueous with cosolvent or surfactant or cyclodextrin, 4% EtOH, 16% PG, 80% phosphate buffer (5 mM), pH 6.9",36.8 mg/mL
same,solubility,"aqueous co-solvent/surfactant solvent system, pH 6.9, aqueous with cosolvent or surfactant or cyclodextrin, 6% EtOH, 16% PG, 78% phosphate buffer (5 mM), pH 6.9",40.9 mg/mL
same,solubility,"aqueous co-solvent/surfactant solvent system, pH 7, aqueous with cosolvent or surfactant or cyclodextrin, 6% EtOH, 12% PG, 82.0% phosphate buffer (5 mM), pH 7.0",34.7 mg/mL
same,solubility,"aqueous co-solvent/surfactant solvent system, pH 7, aqueous with cosolvent or surfactant or cyclodextrin, 8% EtOH, 16% PG, 76.0% phosphate buffer (5 mM), pH 7.0",43.7 mg/mL
same,solubility,"citrate buffer with co-solvent, pH 4.4, aqueous buffer, 4% Gly, 96.0% citrate buffer (10 mM), pH 4.4",19.8 mg/mL
same,solubility,"citrate buffer with co-solvent, pH 4.4, aqueous with cosolvent or surfactant or cyclodextrin, 8% PG, 92.0% citrate buffer (10 mM), pH 4.4",23.2 mg/mL
same,solubility,"citrate buffer with co-solvent, pH 4.5, aqueous buffer, 4% EtOH, 96.0% citrate buffer (10 mM), pH 4.5",22.3 mg/mL
same,solubility,"citrate buffer with surfactant, pH 4.5, aqueous with cosolvent or surfactant or cyclodextrin, 0.04% PS80, 100.0% citrate buffer (10 mM), pH 4.5",19.1 mg/mL
same,solubility,"water with co-solvent, pH 4.8, water, 4% Gly, 96.0% water, pH 4.8",20.1 mg/mL
same,solubility,"water with co-solvent, pH 5, aqueous with cosolvent or surfactant or cyclodextrin, 8% PG, 92.0% water, pH 5.0",24.3 mg/mL
same,solubility,"water with co-solvent, pH 5, water, 4% EtOH, 96.0% water, pH 5.0",22.8 mg/mL
same,solubility,"water with co-solvent, pH 6.7, water, 4% Gly, 96.0% water, pH 6.7",20.1 mg/mL
same,solubility,"water with co-solvent, pH 6.8, aqueous with cosolvent or surfactant or cyclodextrin, 8% PG, 92.0% water, pH 6.8",24.6 mg/mL
same,solubility,"water with co-solvent, pH 6.9, water, 4% EtOH, 96.0% water, pH 6.9",24.3 mg/mL
same,solubility,"water with surfactant, pH 4.8, aqueous with cosolvent or surfactant or cyclodextrin, 0.04% PS80, 100.0% water, pH 4.8",8.3 mg/mL
